Measurements taken from the NIST ThermoML archive (doi:10.1016/j.jct.2006.07.022).
± gives the expanded uncertainty stated by the source.

Experiment: xn = mol fraction of the nth substance listed
Settings: 101 kPa, Liquid

CN(C)C=O [dimethylformamide] + Cc1ccccc1
Settings | mass density [kg/m3]
293.15 K, x2 = 0 | 948.58 ± 0.25
293.15 K, x2 = 0.0587 | 943.21 ± 0.27
293.15 K, x2 = 0.0924 | 940.15 ± 0.29
293.15 K, x2 = 0.1596 | 934.15 ± 0.32
293.15 K, x2 = 0.2106 | 929.65 ± 0.35
293.15 K, x2 = 0.2706 | 924.43 ± 0.38
293.15 K, x2 = 0.3202 | 920.16 ± 0.41
293.15 K, x2 = 0.3823 | 914.89 ± 0.45
293.15 K, x2 = 0.4504 | 909.2 ± 0.49
293.15 K, x2 = 0.5171 | 903.73 ± 0.54
293.15 K, x2 = 0.5636 | 899.97 ± 0.57
293.15 K, x2 = 0.7212 | 887.54 ± 0.69
293.15 K, x2 = 0.7647 | 884.19 ± 0.73
293.15 K, x2 = 0.8114 | 880.65 ± 0.77
293.15 K, x2 = 0.8715 | 876.16 ± 0.82
293.15 K, x2 = 0.9412 | 871.04 ± 0.88
303.15 K, x2 = 0 | 939.46 ± 0.26
303.15 K, x2 = 0.0451 | 935.32 ± 0.28
303.15 K, x2 = 0.1012 | 930.23 ± 0.31
303.15 K, x2 = 0.1674 | 924.31 ± 0.34
303.15 K, x2 = 0.2151 | 920.11 ± 0.36
303.15 K, x2 = 0.2855 | 913.98 ± 0.4
303.15 K, x2 = 0.3484 | 908.59 ± 0.44
303.15 K, x2 = 0.4188 | 902.65 ± 0.48
303.15 K, x2 = 0.4876 | 896.96 ± 0.53
303.15 K, x2 = 0.5508 | 891.8 ± 0.57
303.15 K, x2 = 0.6134 | 886.77 ± 0.62
303.15 K, x2 = 0.6745 | 881.95 ± 0.66
303.15 K, x2 = 0.7512 | 876 ± 0.72
303.15 K, x2 = 0.8121 | 871.36 ± 0.77
303.15 K, x2 = 0.8614 | 867.66 ± 0.82
303.15 K, x2 = 0.9318 | 862.47 ± 0.88
313.15 K, x2 = 0 | 930.12 ± 0.28
313.15 K, x2 = 0.051 | 925.45 ± 0.3
313.15 K, x2 = 0.1112 | 920.02 ± 0.32
313.15 K, x2 = 0.1984 | 912.27 ± 0.37
313.15 K, x2 = 0.2511 | 907.67 ± 0.39
313.15 K, x2 = 0.3147 | 902.18 ± 0.43
313.15 K, x2 = 0.3784 | 896.76 ± 0.47
313.15 K, x2 = 0.4322 | 892.26 ± 0.5
313.15 K, x2 = 0.5053 | 886.23 ± 0.55
313.15 K, x2 = 0.5721 | 880.8 ± 0.6
313.15 K, x2 = 0.6427 | 875.17 ± 0.65
313.15 K, x2 = 0.7077 | 870.09 ± 0.7
313.15 K, x2 = 0.7812 | 864.43 ± 0.75
313.15 K, x2 = 0.8419 | 859.84 ± 0.8
313.15 K, x2 = 0.8932 | 856.01 ± 0.85
313.15 K, x2 = 0.9588 | 851.2 ± 0.91
323.15 K, x2 = 0 | 920.55 ± 0.29
323.15 K, x2 = 0.044 | 916.54 ± 0.31
323.15 K, x2 = 0.1062 | 910.94 ± 0.33
323.15 K, x2 = 0.1721 | 905.1 ± 0.37
323.15 K, x2 = 0.2314 | 899.91 ± 0.4
323.15 K, x2 = 0.2985 | 894.12 ± 0.43
323.15 K, x2 = 0.3647 | 888.5 ± 0.47
323.15 K, x2 = 0.4215 | 883.74 ± 0.5
323.15 K, x2 = 0.4874 | 878.3 ± 0.55
323.15 K, x2 = 0.5484 | 873.34 ± 0.59
323.15 K, x2 = 0.6014 | 869.09 ± 0.62
323.15 K, x2 = 0.6647 | 864.08 ± 0.67
323.15 K, x2 = 0.7314 | 858.9 ± 0.72
323.15 K, x2 = 0.7951 | 854.03 ± 0.77
323.15 K, x2 = 0.8654 | 848.74 ± 0.83
323.15 K, x2 = 0.9321 | 843.83 ± 0.88
333.15 K, x2 = 0 | 910.75 ± 0.3
333.15 K, x2 = 0.0512 | 906.14 ± 0.33
333.15 K, x2 = 0.112 | 900.72 ± 0.35
333.15 K, x2 = 0.1784 | 894.89 ± 0.38
333.15 K, x2 = 0.2351 | 889.98 ± 0.41
333.15 K, x2 = 0.2985 | 884.55 ± 0.44
333.15 K, x2 = 0.3514 | 880.08 ± 0.47
333.15 K, x2 = 0.4122 | 875 ± 0.51
333.15 K, x2 = 0.4841 | 869.09 ± 0.55
333.15 K, x2 = 0.5451 | 864.14 ± 0.59
333.15 K, x2 = 0.6015 | 859.64 ± 0.63
333.15 K, x2 = 0.6641 | 854.71 ± 0.68
333.15 K, x2 = 0.7321 | 849.44 ± 0.73
333.15 K, x2 = 0.7951 | 844.64 ± 0.78
333.15 K, x2 = 0.8621 | 839.62 ± 0.83
333.15 K, x2 = 0.9245 | 835.02 ± 0.88
343.15 K, x2 = 0 | 900.73 ± 0.32
343.15 K, x2 = 0.0632 | 895.11 ± 0.34
343.15 K, x2 = 0.1201 | 890.11 ± 0.37
343.15 K, x2 = 0.1854 | 884.45 ± 0.4
343.15 K, x2 = 0.2554 | 878.46 ± 0.43
343.15 K, x2 = 0.3114 | 873.73 ± 0.46
343.15 K, x2 = 0.3784 | 868.14 ± 0.5
343.15 K, x2 = 0.4552 | 861.82 ± 0.55
343.15 K, x2 = 0.5114 | 857.28 ± 0.58
343.15 K, x2 = 0.5662 | 852.9 ± 0.62
343.15 K, x2 = 0.6212 | 848.55 ± 0.66
343.15 K, x2 = 0.6812 | 843.88 ± 0.7
343.15 K, x2 = 0.7499 | 838.61 ± 0.75
343.15 K, x2 = 0.8021 | 834.67 ± 0.79
343.15 K, x2 = 0.8654 | 829.95 ± 0.84
343.15 K, x2 = 0.9421 | 824.34 ± 0.9
353.15 K, x2 = 0 | 890.48 ± 0.34
353.15 K, x2 = 0.0451 | 886.53 ± 0.35
353.15 K, x2 = 0.1023 | 881.55 ± 0.38
353.15 K, x2 = 0.1654 | 876.13 ± 0.4
353.15 K, x2 = 0.2215 | 871.36 ± 0.43
353.15 K, x2 = 0.2865 | 865.91 ± 0.46
353.15 K, x2 = 0.3412 | 861.36 ± 0.49
353.15 K, x2 = 0.4012 | 856.44 ± 0.53
353.15 K, x2 = 0.4687 | 850.98 ± 0.57
353.15 K, x2 = 0.5214 | 846.76 ± 0.6
353.15 K, x2 = 0.5841 | 841.82 ± 0.64
353.15 K, x2 = 0.6474 | 836.89 ± 0.68
353.15 K, x2 = 0.7142 | 831.77 ± 0.73
353.15 K, x2 = 0.7784 | 826.93 ± 0.78
353.15 K, x2 = 0.8451 | 821.96 ± 0.83
353.15 K, x2 = 0.9012 | 817.86 ± 0.87
